# Measured values: patent US8093299B2, “Methods of treating bowel disorders” (Amgen Inc., priority 2007, dated 2012)
# Values joined by “and” are separate entries in the source; they are usually repeats but may differ in a detail not shown here. Equal values may be shown once. Read-outs that look alike come from different tables or passages of the source.
# Legend:
# [1] = test system: rat unstripped colonic sheets (enteric nervous system activity)
# [2] = Serum calcium and phosphorus in mdr1a-/- colitis study; assay type: in vivo, mouse; conditions: 10 mg/kg PO daily; day 38
# Protocol: (§1) All mice were necropsied on day 38 post initial inoculation. Mice were euthanized by CO2 asphyxiation. Blood was obtained by intracardiac puncture and collected in serum separator tubes. Serum was harvested and stored at −80° C. Colons were dissected below the cecum and just above the anus, and the contents of the lumen were removed. Sections of the proximal, middle, and distal colon regions were fixed in 10% neutral buffered formalin for histopathological analysis.
# (§2) Serum clinical chemistry analysis was performed on the Olympus AU400 using standard tests and protocols. Calcium and phosphorus measurements were performed on undiluted serum for all samples. Serum cytokines and chemokines were assayed by Lincoplex mouse cytokine/chemokine muliplex immunoassasy (Millipore; Billerica, Mass.) per manufacturer instructions.
# (§3) Results for serum analytes were expressed as the mean±standard error of the mean (SEM). A one-way ANOVA with Tukey's post test was performed using GraphPad Prism. A p-value of 0.05 was used in the calculation to determine whether there were significant differences between any two groups. Results for disease onset were expressed as a standard survival curve. A Log-Rank (Mantel-Cox) Test was performed using GraphPad Prism to determine significance. A p-value of 0.05 was used in the calculation to determine whether there were significant differences between any two groups. Results for clinical score and histology score were expressed as the mean±SEM. A Cochran-Mantel-Haenszel mean score test was performed using SAS software. A p-value of 0.05 was used in the calculation to determine whether there were significant differences between any two groups.
# [3] = test system: colitis in mdr1a-/- mice induced by H. bilis; experiment: Colitis in mdr1a-/- mice infected with Helicobacter bilis (clinical score, disease onset, histology); assay type: in vivo, mouse
# IP-10 = experiment: Serum IP-10 in mdr1a-/- colitis study; assay type: in vivo, mouse; conditions: treatment groups vs vehicle treated animals
# Protocol: as §1, §2, §3
# [4] = test system: 5% DSS induced colitis in SJL/J mice; experiment: DSS-induced colitis in mice, histopathologic inflammation score of large intestine; assay type: in vivo, mouse; conditions: 5% DSS 9 days, SJL/J mice; oral; Compound B 10 mg/kg, FK 506 1 mg/kg
# Source text: Animals. Female SJL/J mice aged 8-10 weeks were used for this study, purchased from Jackson Laboratories (Bar Harbour, Me.). Female Spraque-Dawley rats (approximately 150-300 grams) were purchased from Charles River Laboratories Inc. (Wilmington, Mass.). Mdr1a−/− mice (FVB.129P2-Abcb1a^tm1BorN7), weight 20-21 g, 8 weeks at initiation of experiments, were housed and maintained (5 per cage) in the animal facility at Amgen Washington. All animals were cared for according to the standard protocols of the Amgen Institutional Animal Care and Use Committee.
# Chemical reagents. Dextran sodium sulfate (DSS) with molecular mass 36-50 kDa was purchased from ICN Chemicals, Aurora, Ohio. The DSS solution was prepared as a 5% w/v solution in sterile water (Baxter Healthcare Corporation) and sterile filtered through a 0.45 μm filter before being added to drinking water. Water for the negative control groups was similarly filtered. FK506, (also known as Tacrolimus, active ingredient in Prograf®), chemical name [3S-[3R*[E(1S*,3S*,4S*)],4S*,5R*,8S*,9E,12R*,14R*,15S*,16R*,18S*,19S*,26aR*]]-5,6,8,11,12,13,14,15,16,17,18,19,24,25,26,26a-hexadecahydro-5,19-dihydroxy-3-[2-(4-hydroxy-3-methoxycyclohexyl)-1-methylethenyl]-14,16-dimethoxy-4,10,12,18-tetramethyl-8-(2-propenyl)-15,19-epoxy-3H-pyrodi[2,1-c][1,4]oxaazacyclotricosine-1,7,20,21(4H, 23H)-tetrone monohydrate, was used as a positive control for the inflammation treatment. Tacrolimus is a macrolide immunosuppressant produced by Streptomyces tsukubaensis. The solution of FK506 (Prograf®, Astellas) was prepared as follows: 0.1 mg/ml solution in phosphate buffered saline (PBS) was prepared by diluting 5 mg/ml stock solution. The animals were dosed with FK506 at 1 mg/kg in 200 μl of PBS.
# Calcimimetic solutions (Compound A, 3-(2-chlorophenyl)-N-((1R)-1-(3-(methyloxy)phenyl)ethyl)-1-propanamine, Compound B, (1R)-N-((6-(methyloxy)-4′-(trifluoromethyl)-3-biphenylyl)methyl)-1-phenylethanamine, Compound C, N-(2-chloro-5-((((1R)-1-phenylethyl)amino)methyl)phenyl)-5-methyl-3-isoxazolecarboxamide, and Compound D, N-(2-chloro-5-((((1R)-1-phenylethyl)amino)methyl)phenyl)-2-pyridinecarboxamide) were formulated and dosed in free base equivalents at volumes determined by the pharmacologist. Formulation vehicle was 20% (w/v) Captisol (β-Cyclodextrin Sulfobutyl Ether Sodium Salt, Research Grade from CyDex, Inc.) in water with a final pH of 2.0-2.2 at room temperature, adjusted with HCl and NaOH as required. Final concentrations of DMSO never exceeded 0.1% (v/v).
# DSS colitis in mice. All experiments were performed on groups of 8 to 10 SJL-J mice, housed in the same cage. For disease induction, mice were given a 5% DSS ad libitum as drinking water for 9 days.
# Postmortem evaluation. Mice and rats were euthanized by CO2 asphyxiation. The large intestine were removed from the carcass, evaluated for gross lesions and three individual non-adjacent segments of proximal, middle and distal large intestine 2 centimeters long were immersed in the Zinc Formalin fix for 24 hours. At the end of 24 hours the sections were washed with tap water and put into 70% ethanol. Each section was then cut into three 3 mm pieces (9 pieces per animal), processed into paraffin blocks, and sections were cut in 5 μm sections and stained with hematoxylin and eosin.
# Histopathologic changes of the proximal, middle, and distal small and large intestine was scored as a global assessment of inflammation based on inflammatory infiltrate, edema, mucosal erosions or ulcerations as described in Table 6.
# For disease induction, treated mice were given 5% DSS in water ad libitum as drinking water for 9 days as described in Example 1 and were concurrently treated orally during that period with one of the treatments listed in Table 8.
# FIG. 1 and Table 8 summarize the effect of the calcimimetic compound B on colonic inflammation in 5% DSS induced colitis. Animals were euthanized with carbon dioxide on day nine post treatment. […]
# [5] = Compound A 10 μM, bumetanide 100 μM, proximal and distal colon
# [6] = 10 mg/kg PO daily, day 38, score 0-4
smiles,measurement,setting,value
"CCCCNc1cc(C(=O)O)cc(S(N)(=O)=O)c1Oc1ccccc1 [bumetanide, Bumetanide]","short-circuit current, subsequent addition after 2 μM TTX",[1]; [5],no additional effect
same,"short-circuit current, subsequent addition after 10 μM Compound A","[1]; TTX 2 μM, bumetanide 100 μM, proximal and distal colon",no additional effect
"COc1cccc([C@@H](C)NCCCc2ccccc2Cl)c1 [Compound A, 3-(2-chlorophenyl)-N-((1R)-1-(3-(methyloxy)phenyl)ethyl)-1-propanamine]","short-circuit current, subsequent addition after 2 μM TTX",[1]; [5],no additional effect
same,"secretory short-circuit current, agent added first","[1]; over 15 minutes, proximal and distal colon, TTX 2 μM, Compound A 10 μM",inhibited the secretory short-circuit current
"NC1=N[C@H](O)[C@H]2[C@H]3O[C@]4(O)O[C@@H]([C@@H](O)[C@@]2(N1)[C@@H]4O)[C@]3(O)CO [TTX, Tetrodotoxin]","secretory short-circuit current, agent added first",[1],inhibited the secretory short-circuit current
same,"short-circuit current, subsequent addition after 10 μM Compound A",[1],no additional effect
COc1ccc(CN[C@@H](C)c2ccccc2)cc1-c1ccc(C(F)(F)F)cc1 [S-Compound B],serum calcium levels compared to any other group,[2],not statistically different
same,serum phosphorus compared to CTLA4 treated animals,[2],significant reduction
same,day on which animals began showing clinical symptoms (disease onset),[3]; 10 mg/kg PO daily,27 days
same,number of animals with clinical signs of disease at onset day,"[3]; 10 mg/kg PO daily, day 27, n=5",two
same,Average LI score,"[3]; 10 mg/kg PO daily, day 38",1.8
same,"GI Inflammation LI DISTAL, Segment Mean","[3]; 10 mg/kg PO daily, day 38",0.60
same,"GI Inflammation LI MIDDLE, Segment Mean","[3]; 10 mg/kg PO daily, day 38",0.60
same,"GI Inflammation LI PROXIMAL, Segment Mean","[3]; 10 mg/kg PO daily, day 38",0.60
same,"Total LI score (Max = 12), individual animals","[3]; 10 mg/kg PO daily, day 38",0 (4×) and 9
same,"GI Inflammation LI DISTAL, individual animals",[3]; [6],0 (4×) and 3
same,"GI Inflammation LI MIDDLE, individual animals",[3]; [6],0 (4×) and 3
same,"GI Inflammation LI PROXIMAL, individual animals",[3]; [6],0 (4×) and 3
same,clinical score of the animal with clinical symptoms (max 8),"[3]; 10 mg/kg PO daily, final day",4
same,total large intestine (LI) scores of the colitic animals (max 12),"[3]; R-Compound B 10 and 3 mg/kg groups, S-Compound B 10 mg/kg",9
same,number of animals with clinical symptoms of disease on the final day of the study,"[3]; day 38, per treatment group (S-Compound B 10 mg/kg, n=5; R-Compound B 10 mg/kg and 3 mg/kg, n=10 each)",one
same,animals with colitis / colon pathology by histology,"[3]; per group: R-Compound B 10 and 3 mg/kg each, S-Compound B 10 mg/kg",1 out of 5
same,elevation of serum IP-10,IP-10,less elevation
"C=CC[C@@H]1/C=C(\C)C[C@H](C)C[C@H](OC)[C@H]2O[C@@](O)(C(=O)C(=O)N3CCCC[C@H]3C(=O)O[C@H](/C(C)=C/[C@@H]3CC[C@@H](O)[C@H](OC)C3)[C@H](C)[C@@H](O)CC1=O)[C@H](C)C[C@@H]2OC (relative stereo) [FK 506, [3S-[3R*[E(1S*,3S*,4S*)],4S*,5R*,8S*,9E,12R*,14R*,15S*,16R*,18S*,19S*,26aR*]]-5,6,8,11,12,13,14,15,16,17,18,19,24,25,26,26a-hexadecahydro-5,19-dihydroxy-3-[2-(4-hydroxy-3-methoxycyclohexyl)-1-methylethenyl]-14,16-dimethoxy-4,10,12,18-tetramethyl-8-(2-propenyl)-15,19-epoxy-3H-pyrodi[2,1-c][1,4]oxaazacyclotricosine-1,7,20,21(4H, 23H)-tetrone monohydrate, reference compound]",Animals with colonic inflammation/total animals,[4],10/10
